Reference: patent US12668587B2, “Benzimidazolone GLP-1 receptor agonist and use thereof” (HANGZHOU ZHONGMEIHUADONG PHARMACEUTICAL CO., LTD., priority 2020, dated 2026)
Where two headings read alike, the source gives them in different places.

Assays:
[1] = Metabolic stability in (human) liver microsomes; conditions: pH 7.4
[2] = molecular target: Human GLP-1R (Homo sapiens, UniProt P43220); assay: GLP-1R agonist activity, HTRF cAMP detection in 293A GFP-GLP-1R cells; parameters: Emax: dose or concentration left out as unconfirmed; conditions: for Emax: 293A
Experimental: GLP-1R-mediated agonist activity was determined by cell-based assays using a homogeneous time-resolved fluorescence (i.e., HTRF)-based cAMP detection kit, which measures the level of cAMP in cells. The method was a competitive immunoassay. It enabled direct pharmacological characterization of compounds acting on Gs-coupled receptors in adherent or suspending cells.
The standard curve of native cAMP or unlabeled cAMP produced by cells competed with d2-labeled cAMP red receptors to bind monoclonal anti-cAMP Eu3+ cryptate donors, and the specific signal was inversely proportional to the concentration of cAMP in standard or tested samples.
Human GLP-1R encoding sequence (NCBI reference sequence NP_002053.3) was subcloned into pEGFP-N1 (tsingke), and the cell line stably expressing the receptor was isolated. The expression density of GLP-1R was confirmed by the expression of GFP observed under a fluorescence microscope.
Cells were collected from a T25 tissue culture flask and centrifuged at room temperature at 1000 rpm for 5 minutes. The cell precipitates were then re-suspended in 1 mL of the stimulating buffer. 20 μL sample of cell suspension was counted on a counter STAR IC 1000 to determine the cell viability and the cell count per mL. The remaining cell suspension was then regulated with the stimulating buffer to deliver 2000 living cells per well using a multi-channel pipette. 5 μL of the cell suspension was added to each well of the plate which already contained the compound. The plate was sealed and incubated at 37° C. with 5% CO2 for 30 minutes.
After 30 minutes of incubation, 5 μL of d2-labeled cAMP and 5 μL of anti-cAMP cryptate (both 1: 20 diluted in the cell lysis buffer) were added to each well of the plate. The plate was then incubated at room temperature for 60 minutes, and the changes of HTRF signal were read with Tecan Spark reader: absorbance values at 340 nm (excitation)/at 615 nm and 665 nm (emission). Raw data were converted into nM cAMP by interpolation from the cAMP standard curve, and the effect in percentage was determined relative to the saturated concentration of the complete agonist GLP-17˜37 (400 nM) contained in each plate. Determination of EC50 was performed based on the agonist dose-response curve, which was analyzed using a four-parameter logical dose-response equation with a curve fitting program.
The test data presented the results in the form of a geometric mean (EC50s) based on the number of repetition times.

[3] = molecular target: hERG potassium channels (Homo sapiens, UniProt Q12809); assay: Inhibition of hERG potassium channels, whole-cell patch clamp in HEK-293-hERG cells
hERG potassium channels, sequence (Q12809 whole entry): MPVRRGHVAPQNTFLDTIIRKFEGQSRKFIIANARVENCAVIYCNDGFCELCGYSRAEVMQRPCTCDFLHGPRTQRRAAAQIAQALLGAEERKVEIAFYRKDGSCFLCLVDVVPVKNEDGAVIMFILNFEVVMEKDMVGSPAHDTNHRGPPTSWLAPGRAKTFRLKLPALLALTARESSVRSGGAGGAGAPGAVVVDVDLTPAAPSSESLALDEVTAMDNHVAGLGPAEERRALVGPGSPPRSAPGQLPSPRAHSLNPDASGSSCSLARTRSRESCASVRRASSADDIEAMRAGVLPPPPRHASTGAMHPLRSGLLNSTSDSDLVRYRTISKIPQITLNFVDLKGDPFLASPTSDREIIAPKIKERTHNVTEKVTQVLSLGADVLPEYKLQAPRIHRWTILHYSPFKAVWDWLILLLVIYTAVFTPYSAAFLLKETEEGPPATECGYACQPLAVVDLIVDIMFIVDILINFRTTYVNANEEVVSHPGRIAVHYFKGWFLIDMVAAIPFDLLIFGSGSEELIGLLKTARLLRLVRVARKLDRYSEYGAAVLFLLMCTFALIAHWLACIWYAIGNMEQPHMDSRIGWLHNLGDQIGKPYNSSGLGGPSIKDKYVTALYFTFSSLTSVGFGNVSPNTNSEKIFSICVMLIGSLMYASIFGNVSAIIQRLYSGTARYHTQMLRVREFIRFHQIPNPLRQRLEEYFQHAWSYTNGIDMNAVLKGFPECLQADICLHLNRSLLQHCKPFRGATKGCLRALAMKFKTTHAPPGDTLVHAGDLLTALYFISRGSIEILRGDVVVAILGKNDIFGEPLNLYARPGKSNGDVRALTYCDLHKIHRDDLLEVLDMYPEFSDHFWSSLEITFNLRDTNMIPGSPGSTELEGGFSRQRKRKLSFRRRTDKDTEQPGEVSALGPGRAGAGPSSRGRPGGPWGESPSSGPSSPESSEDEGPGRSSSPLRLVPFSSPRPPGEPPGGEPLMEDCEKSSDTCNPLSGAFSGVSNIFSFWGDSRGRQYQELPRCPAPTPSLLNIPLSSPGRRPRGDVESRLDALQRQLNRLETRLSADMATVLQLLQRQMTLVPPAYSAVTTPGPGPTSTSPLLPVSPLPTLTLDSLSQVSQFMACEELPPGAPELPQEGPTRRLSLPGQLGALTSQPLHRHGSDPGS

Human GLP-1R, sequence (P43220 24-463): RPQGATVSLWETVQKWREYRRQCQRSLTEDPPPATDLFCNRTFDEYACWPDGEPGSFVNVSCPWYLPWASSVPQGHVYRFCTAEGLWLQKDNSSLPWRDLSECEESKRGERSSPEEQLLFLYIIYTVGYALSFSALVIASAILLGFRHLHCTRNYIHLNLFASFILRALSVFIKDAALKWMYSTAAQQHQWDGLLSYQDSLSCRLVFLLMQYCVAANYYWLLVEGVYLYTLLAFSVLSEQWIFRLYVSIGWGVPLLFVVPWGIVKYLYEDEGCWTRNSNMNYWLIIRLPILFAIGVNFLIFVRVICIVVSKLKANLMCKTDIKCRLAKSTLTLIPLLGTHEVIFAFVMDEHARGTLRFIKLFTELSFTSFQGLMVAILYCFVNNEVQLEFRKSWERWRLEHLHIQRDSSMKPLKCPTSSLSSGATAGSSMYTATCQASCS

| Compound | EC50 [2] | Emax [2] | also measured |
| --- | --- | --- | --- |
| O=C(O)c1ccc2nc(CN3CC=C(c4cccc(OCc5ccc(C(=O)C6CC6)cc5F)n4)CC3)n(C[C@@H]3CCO3)c2c1 [Compound 22, (S)-2-((6-((4-(cyclopropanecarbonyl)-2-fluorobenzyl)oxy)-3′,6′-dihydro-[2,4′-bipyridin]-1′(2′H)-yl)methyl)-1-(oxetan-2-ylmethyl)-1H-benzo[d]imidazole-6-carboxylic acid] | 2.07 nM | 83.4% | half-life at 1 μM [1]: 60.1 min; hERG (IR) ([3]; inhibition rate of hERG tail current at 1 μM): 0.92%; hERG (IR) ([3]; inhibition rate of hERG tail current at 10 μM): 23.50% |
| CN1CCC(C(=O)c2ccc(COc3cccc(C4CCN(Cc5nc6ccc(C(=O)O)cc6n5C[C@@H]5CCO5)CC4)n3)c(F)c2)CC1 [Compound 29, (S)-2-((4-(6-((2-fluoro-4-(1-methylpiperidin-4-carbonyl)benzyl)oxy)pyridin-2-yl)piperidin-1-yl)methyl)-1-(oxetan-2-ylmethyl)-1H-benzo[d]imidazole-6-carboxylic acid] | – | 7.12% | – |
| CC(=O)c1ccc(COc2cccc(C3CCN(Cc4nc5ccc(C(=O)O)cc5n4C[C@@H]4CCO4)CC3)n2)c(OC2CC2)c1 [Compound 31, (S)-2-((4-(6-((4-acetyl-2-cyclopropoxybenzyl)oxy)pyridin-2-yl)piperidin-1-yl)methyl)-1-(oxetan-2-ylmethyl)-1H-benzo[d]imidazole-6-carboxylic acid] | 18.5 nM | 75.4% | – |
| COc1cc(C(=O)C(C)C)ccc1COc1cccc(C2CCN(Cc3nc4ccc(C(=O)O)cc4n3C[C@@H]3CCO3)CC2)n1 [Compound 32, (S)-2-((4-(6-((4-isobutyryl-2-methoxybenzyl)oxy)pyridin-2-yl)piperidin-1-yl)methyl)-1-(oxetan-2-ylmethyl)-1H-benzo[d]imidazole-6-carboxylic acid] | 416 nM | 102% | – |
| CCn1cnc(Cn2c(CN3CCC(c4cccc(OCc5ccc(C(=O)C6CC6)cc5F)n4)CC3)nc3ccc(C(=O)O)cc32)c1 [Compound 35, 2-((4-(6-((4-(cyclopropanecarbonyl)-2-fluorobenzyl)oxy)pyridin-2-yl)piperidin-1-yl)methyl)-1-((1-ethyl-1H-imidazol-4-yl)methyl)-1H-benzo[d]imidazole-6-carboxylic acid] | 32 nM | – | – |
| COc1cc(C(=O)C2CC2)cc(F)c1COc1cccc(C2CCN(Cc3nc4ccc(C(=O)O)cc4n3C[C@@H]3CCO3)CC2)n1 [Compound 36, (S)-2-((4-(6-((4-(cyclopropanecarbonyl)-2-fluoro-6-methoxybenzyl)oxy)pyridin-2-yl)piperidin-1-yl)methyl)-1-(oxetan-2-ylmethyl)-1H-benzo[d]imidazole-6-carboxylic acid] | 20.4 nM | 84.9% | – |
| COc1cc(COc2cccc(C3CCN(Cc4nc5ccc(C(=O)O)cc5n4C[C@@H]4CCO4)CC3)n2)c(F)cc1C(=O)C1CC1 [Compound 37, (S)-2-((4-(6-((4-(cyclopropanecarbonyl)-2-fluoro-5-methoxybenzyl)oxy)pyridin-2-yl)piperidin-1-yl)methyl)-1-(oxetan-2-ylmethyl)-1H-benzo[d]imidazole-6-carboxylic acid] | 228 nM | 68.5% | – |
| Cc1cc(COc2cccc(C3CCN(Cc4nc5ccc(C(=O)O)cc5n4C[C@@H]4CCO4)CC3)n2)c(F)cc1C(=O)C1CC1 [Compound 38, (S)-2-((4-(6-((4-(cyclopropanecarbonyl)-2-fluoro-5-methylbenzyl)oxy)pyridin-2-yl)piperidin-1-yl)methyl)-1-(oxetan-2-ylmethyl)-1H-benzo[d]imidazole-6-carboxylic acid] | > 1000 nM | 85.9% | – |
| Cc1cc(C(=O)C2CC2)ccc1COc1cccc(N2CCN(Cc3nc4ccc(C(=O)O)cc4n3C[C@@H]3CCO3)[C@@H](C)C2)n1 [Compound 41, 2-(((S)-4-(6-((4-(cyclopropanecarbonyl)-2-methylbenzyl)oxy)pyridin-2-yl)-2-methylpiperazin-1-yl)methyl)-1-(((S)-oxetan-2-yl)methyl)-1H-benzo[d]imidazole-6-carboxylic acid] | > 1000 nM | 77.3% | – |
| CC(C)C(=O)c1ccc(COc2cccc(C3CCN(Cc4nc5ccc(C(=O)O)cc5n4C[C@@H]4CCO4)CC3)n2)c(F)c1 [Compound 43, (S)-2-((4-(6-((2-fluoro-4-isobutyrylbenzyl)oxy)pyridin-2-yl)piperidin-1-yl)methyl)-1-(oxetan-2-ylmethyl)-1H-benzo[d]imidazole-6-carboxylic acid] | – | – | EC50 ([2]; cAMP level, 293A GFP-GLP-1R cells, 30 min incubation, geometric mean): 1.4 nM |

Continued, in another order:

| EC50 [2] | Emax [2] | Compound | also measured |
| --- | --- | --- | --- |
| 0.95 nM | 100% | CCC(=O)c1ccc(COc2cccc(C3=CCN(Cc4nc5ccc(C(=O)O)cc5n4C[C@@H]4CCO4)CC3)n2)c(F)c1 [Compound 25, (S)-2-((6-((2-fluoro-4-propionylbenzyl)oxy)-3′,6′-dihydro-[2,4′-bipyridin]-1′(2′H)-yl)methyl)-1-(oxetan-2-ylmethyl)-1H-benzo[d]imidazole-6-carboxylic acid] | half-life at 1 μM [1]: 25.5 min |
| 0.3 nM | 95.2% | CC(=O)c1ccc(COc2cccc(N3CCN(Cc4nc5ccc(C(=O)O)cc5n4C[C@@H]4CCO4)[C@@H](C)C3)n2)c(F)c1 [Compound 28, 2-(((S)-4-(6-((4-acetyl-2-fluorobenzyl)oxy)pyridin-2-yl)-2-methylpiperazin-1-yl)methyl)-1-(((S)-oxetan-2-yl)methyl)-1H-benzo[d]imidazole-6-carboxylic acid] | – |
| 0.91 nM | 112% | CCOc1cc(C(C)=O)ccc1COc1cccc(C2CCN(Cc3nc4ccc(C(=O)O)cc4n3C[C@@H]3CCO3)CC2)n1 [Compound 30, (S)-2-((4-(6-((4-acetyl-2-ethoxybenzyl)oxy)pyridin-2-yl)piperidin-1-yl)methyl)-1-(oxetan-2-ylmethyl)-1H-benzo[d]imidazole-6-carboxylic acid] | – |
| 1.59 nM | 92.9% | O=C(O)c1ccc2nc(CN3CCC(c4cccc(OCc5ccc(C(=O)C6CC6)cc5F)n4)CC3)n(C[C@@H]3CCO3)c2n1 [Compound 33, (S)-2-((4-(6-((4-(cyclopropanecarbonyl)-2-fluorobenzyl)oxy)pyridin-2-yl)piperidin-1-yl)methyl)-3-(oxetan-2-ylmethyl)-3H-imidazo[4,5-b]pyridine-5-carboxylic acid] | – |
| 0.7 nM | 81.5% | CC(=O)c1ccc(COc2cccc(C3=CCN(Cc4nc5ccc(C(=O)O)cc5n4C[C@@H]4CCO4)CC3)n2)c(F)c1 [Compound 34, (S)-2-((6-((4-acetyl-2-fluorobenzyl)oxy)-3′,6′-dihydro-[2,4′-bipyridin]-1′(2′H)-yl)methyl)-1-(oxetan-2-ylmethyl)-1H-benzo[d]imidazole-6-carboxylic acid] | half-life at 1 μM [1]: 14.2 min |
| 3.38 nM | 87.9% | C[C@H]1CN(c2cccc(OCc3ccc(C(=O)C4CC4)cc3F)n2)CCN1Cc1nc2ccc(C(=O)O)cc2n1C[C@@H]1CCO1 [Compound 39, 2-(((S)-4-(6-((4-(cyclopropanecarbonyl)-2-fluorobenzyl)oxy)pyridin-2-yl)-2-methylpiperazin-1-yl)methyl)-1-(((S)-oxetan-2-yl)methyl)-1H-benzo[d]imidazole-6-carboxylic acid] | – |
| 0.07 nM | 94.7% | Cc1cc(C(=O)C2CC2)ccc1COc1cccc(C2CCN(Cc3nc4ccc(C(=O)O)nc4n3C[C@@H]3CCO3)CC2)n1 [Compound 40, (S)-2-((4-(6-((4-(cyclopropanecarbonyl)-2-methylbenzyl)oxy)pyridin-2-yl)piperidin-1-yl)methyl)-3-(oxetan-2-ylmethyl)-3H-imidazo[4,5-b]pyridine-5-carboxylic acid] | – |
| 0.23 nM | – | O=C(O)c1ccc2nc(CC3CCN(c4cccc(OCc5ccc(C(=O)C6CC6)cc5F)n4)CC3)n(C[C@@H]3CCO3)c2c1 [Compound 42, (S)-2-((1-(6-((4-(cyclopropanecarbonyl)-2-fluorobenzyl)oxy)pyridin-2-yl)piperidin-4-yl)methyl)-1-(oxetan-2-ylmethyl)-1H-benzo[d]imidazole-6-carboxylic acid] | – |
| 0.02 nM | – | O=C(O)c1ccc2nc(CN3CCC(c4cccc(OCc5ccc(C(=O)C6CC6)cc5Cl)n4)CC3)n(C[C@@H]3CCO3)c2c1 [Compound 44, (S)-2-((4-(6-((2-chloro-4-(cyclopropanecarbonyl)benzyl)oxy)pyridin-2-yl)piperidin-1-yl)methyl)-1-(oxetan-2-ylmethyl)-1H-benzo[d]imidazole-6-carboxylic acid] | – |
| 0.013 nM | – | N#CCC1(Cn2c(CN3CCC(c4cccc(OCc5ccc(C(=O)C6CC6)cc5F)n4)CC3)nc3ccc(C(=O)O)cc32)CC1 [Compound 45] | – |
| 0.02 nM | – | O=C(O)c1ccc2nc(Cc3ccc(-c4cccc(OCc5ccc(C(=O)C6CC6)cc5F)n4)cc3F)n(C[C@@H]3CCO3)c2c1 [Compound 46] | – |
| 0.01 nM | – | O=C(O)c1ccc2nc(CN3CCC(c4cccc(OCc5ccc(C(=O)C6CC6)cc5F)n4)CC3)n(CC3(CF)CC3)c2c1 [Compound 47] | – |
| 0.065 nM | – | O=C(O)c1ccc2nc(Cc3ccc(-c4cccc(OCc5ccc(C(=O)C6CC6)cc5F)n4)cc3F)n(CC3(CF)CC3)c2c1 [Compound 48] | – |
